Reference: patent US5698391A, “Methods for synthetic unrandomization of oligomer fragments” (ISIS Pharmaceuticals, Inc., priority 1994, dated 1997)

These substances were tested on HIV gag-pol stem loop (assay: Gel shift, oligonucleotide set binding to HIV gag-pol triple strand). Details: pH 5, 100 mM NaCl, 2 mM MgCl2, 1 mM spermidine.
Excerpt: Binding to double stranded DNA or RNA is possible by formation of a three stranded complex, with the incoming third strand binding in the major groove of the duplex RNA or DNA. FIG. 6 illustrates a double stranded RNA structure from HIV known as the gag-pol stem loop (Vickers and Ecker, Nucleic Acids Research). One of the limitations in the design of triple strand interactions is the need to have a long stretch of homopurines as a target. The 3' (right) side of the gag-pol stem loop is homopurine except for a pair of cytosines near the bottom of the stem. To determine the best oligonucleotide to bind to the gag-pol stem loop, a group of RNA oligonucleotide sets was designed to bind to the purine-rich strand of the gag-pol stem-loop by Hoogstein base pairing and prepared in accordance with Examples 2 and 6. Binding to the gag-pol stemloop was measured by gel shift analysis as previously described in Example 8 with the following modifications: the radiolabeled gag-pol RNA was incubated with the oligonucleotide in 100 mM NaCl, 25 mM TRIS acetate (pH 5), 2 mM MgCl2, 1 mM spermidine. The gel was 15% acrylamide with 50 mM NaCl and 2 mM MgCl2 added to the running buffer.
“C2: RNA oligonucleotide, SEQ ID NO: 12 (CCCUUCCCCUC; RNA, backbone not given here) [Set C2]” showed a Kd of 1 µM. Work on “D2: RNA oligonucleotide, SEQ ID NO: 13 (CCCUUCCCUUC; RNA, backbone not given here) [Set D2]” yielded a Kd of 10 µM. In the case of “A2: RNA oligonucleotide, SEQ ID NO: 10 (CCCUUCCCAUC; RNA, backbone not given here) [Set A2]”, the Kd is reported as 10 µM. Substance “B2: RNA oligonucleotide, SEQ ID NO: 11 (CCCUUCCCGUC; RNA, backbone not given here) [Set B2]” has a Kd of 10 µM.
